Entries after “also recorded” stand apart in the source; their conditions may differ.
How the values were obtained:
microtubules = conditions: fold lower than maximum tolerated therapeutic dose
[1] = tested on: sciatic nerve microtubules; test: Sciatic nerve microtubule dynamics (2H label incorporation into free tubulin and polymerized microtubules); conditions: higher doses of paclitaxel; tumor-bearing mice (FIG. 6A)
Description: (§4) In order to evaluate neurotoxic effects of paclitaxel, the sciatic nerve was isolated from tumor-bearing mice and ^2H label incorporation into free tubulin was compared with ^2H label incorporation into polymerized microtubuies (FIG. 6). […] To explore this effect further, net changes in the abundance of unpolymerized free tubulin and microtubules was assessed by densitometric analysis (FIG. 6B).

[2] = tested on: sciatic nerve microtubules; test: Densitometric analysis of free tubulin and microtubule abundance in sciatic nerve; conditions: tumor-bearing mice (FIG. 6B)
Description: as §4

[3] = tested on: MCF-7 human breast cancer cells implanted into nude mice; test: 2H label incorporation into tubulin dimers and polymers in implanted MCF-7 tumors in vivo
Description: (§1) The tumors were allowed to grow to approximately 1000 mm^3 […]; mice were then injected intraperitoneally with increasing doses of paclitaxel. ^2H2O (8%) in drinking water was administered for a 24 hr period, resulting in about 5% ^2H enrichment in body water (the balance being metabolic water). Animals were sacrificed 24 hours after drug treatment, and tumor tissue was removed for analysis of ^2H—label incorporation into tubulin dimers and polymers (FIG. 4).
Qualitatively similar effects of paclitaxel were also seen in implanted MCF-7 tumors, though the amount of ^2H—label incorporation was lower than in SW1573 tumors (FIG. 4B).

[4] = tested on: SW1573 human lung cancer cells implanted into nude mice; test: Microtubule dynamics compared to de novo DNA synthesis (cell proliferation) in SW1573 tumors; assay type: in vivo; conditions: varying doses of paclitaxel; 2H2O for 24 hours (FIG. 5A)
Source text: (§2) Microtubule dynamics were expressed as (^2H enrichment in polymer)/(^2H enrichment in dimer). Inhibition of de novo DNA synthesis was quantified as the reduction in ^2H label incorporation into tumor cell DNA. […]
(§3) Various factors can interfere with the actions of paclitaxel in tumors, including alterations in tubulin isotype content, efflux pumps, and in vivo drug metabolism. Regardless of these factors, inhibition of microtubule dynamics, if related to the antiproliferative activity of MTPAs in vivo, should correlate with inhibition of cell proliferation. […] Thus, the inhibition of microtubule dynamics appeared to have a measurable impact on and relation to the in vivo antiproliferative action of MTPAs.

[5] = tested on: SW1573 human lung cancer cells implanted into nude mice; test: 2H label incorporation into tubulin dimers and polymers in implanted SW1573 tumors in vivo
Description: as §1

[6] = tested on: SW1573 human lung cancer cells; test: 2H2O stable isotope incorporation into tubulin dimers and microtubule polymers in cultured cells; assay type: cell-based
Description: To determine whether biosynthetic labeling with ^2H2O can reveal MTPA effects on microtubule dynamics in actively proliferating cells, SW1573 human lung cancer cells were cultured and labeled during exponential growth with culture media containing 4% ^2H2O for 2, 6, 12, 24 and 36 hr, respectively. Tubulin dimer and polymer fractions were isolated from post-nuclear supernatants, and tubulin was purified from each fraction to ≧90% purity as determine by SDS-PAGE. After acid hydrolysis, amino acids were derivatized for GC/MS analysis with negative chemical ionization, and ^2H-label incorporation into the alanine derivative was quantified as the increase over natural abundance of the (M+1) mass isotopomer (“^2H—enrichment”; FIG. 3). […] The data support that in actively dividing cells, tubulin dimers and polymers are in a kinetic equilibrium on a time scale of hours. […] This indicates a substantial inhibition of ^2H—tubulin dimer flux into polymer, reflective of the ability of paclitaxel to stabilize microtubules and thus to prevent dynamic instability.

[7] = tested on: MCF-7 human breast cancer cells implanted into nude mice; test: Microtubule dynamics compared to de novo DNA synthesis (cell proliferation) in MCF-7 tumors; assay type: in vivo; conditions: varying doses of paclitaxel; 2H2O for 24 hours (FIG. 5B)
Source text: as §2, §3

[8] = at ≧5 mg/kg i.p., 2H2O for 24 hours (FIG. 4B)
[9] = at ≧5 mg/kg i.p., 2H2O for 24 hours (FIG. 4A)
[10] = increasing doses i.p., 24 hr 2H2O (8%) in drinking water

Compound: CC(=O)O[C@H]1C(=O)[C@@]2(C)[C@H]([C@H](OC(=O)c3ccccc3)[C@]3(O)C[C@H](OC(=O)[C@H](O)[C@@H](NC(=O)c4ccccc4)c4ccccc4)C(C)=C1C3(C)C)[C@]1(OC(C)=O)CO[C@@H]1C[C@@H]2O [paclitaxel]
- doses with significant effects on microtubule dynamics, relative to the maximum tolerated therapeutic dose (microtubules): up to 30 fold
- 2H label incorporation into polymers (sciatic nerve) [1]: increased the label incorporation into polymers
- 2H labeling of free tubulin (sciatic nerve) [1]: slightly decreasing labeling of free tubulin
- amount of free tubulin dimers (sciatic nerve, densitometry) [2]: slight decrease in free tubulin dimers
- paclitaxel-dependent reduction of 2H-label polymer ([3]; 5 and 10 mg/kg doses, compared with SW1573 tumors): less pronounced, albeit statistically significant
- de novo synthesis of tubulin dimer [3, 8]: increased de novo synthesis of tubulin dimer
- label incorporation into polymer [3, 8]: inhibited label incorporation into polymer
- upregulation of tubulin fractional synthesis over baseline ([3]; increasing doses i.p., 24 hr 2H2O): no significant paclitaxel-induced upregulation of tubulin fractional synthesis over baseline
- relation between inhibition of microtubule dynamics and inhibition of de novo DNA synthesis (tumor cell proliferation) [4]: strong relationship; also recorded: strong correlation between inhibition of microtubule dynamic instability and reduction in cell proliferation
- de novo synthesis of tubulin dimer [5, 9]: increased de novo synthesis of tubulin dimer
- label incorporation into polymer [5, 9]: inhibited label incorporation into polymer
- fractional synthesis of tubulin dimers [5, 10]: fractional synthesis of tubulin dimers increased
- incorporation of 2H-tubulin into microtubules [5, 10]: decreased incorporation of ^2H—tubulin into microtubules in a dose-dependent manner
- 2H-enrichment in labeled polymers ([6]; 0.4 µM paclitaxel, 4% 2H2O, 36 hours (FIG. 3B)): reduced ^2H-enrichment in labeled polymers
- reduction of rate of 2H incorporation into polymers compared to rate of label incorporation into the dimer ([6]; media containing 4% 2H2O, up to 36 hr): 75%
- relation between inhibition of microtubule dynamics and inhibition of de novo DNA synthesis (tumor cell proliferation) [7]: strong relationship; also recorded: strong correlation between inhibition of microtubule dynamics and reduction in cell proliferation

From patent publication US20080187937A1, “Method For Measuring Dynamics Of Self-Assembling Systems Of Biological Molecules In Vivo And Uses For Discovering Or Evaluating Therapeutic Agents” (priority 2004, published 2008)
